Reference: patent US20240101570A1 (AMGEN INC., priority 2020, published 2024)

Tests used:
[1] = tested on: HCT116 MTAP null cells; assay: HCT116 MTAP null cell proliferation / viability (CellTiter-Glo, 6 days); format: cell-based; details: HCT116-MTAP null, 144 h, HCT116 MTAP null cells, 6 days, CellTiter-Glo; read-out: HCT-116 MTAP null IC50
Protocol: (§1) HCT116 MTAP null and WT cells were seeded in 96-well tissue culture plates in RPMI 1640 media+10% fetal bovine serum. Plates were incubated overnight at 37° C. and 5% CO2. Cells were then treated with an 8- or 9-point serial dilution of compound, using a top concentration of 1, or 10 μM, 1:3 serial dilution steps and, a DMSO-only control. Cells were incubated in the presence of drug for 6 days. Effects on cell viability were measured with the CellTiter-Glo® Luminescent Cell Viability Assay (Promega) per manufacturer's recommendation. Assay plates were read on an EnVision™ Multilabel Reader using the Ultra-Sensitive luminescence module. IC50 values were calculated with GraphPad Prism v 5.01 using symmetrical sigmoidal dose-response least squares fit with Hill slope fixed to −1 and top constrain to 100% or GeneData Screener using a 4-parameter logistic model to fit dose response curves.
(§2) Alternatively, compounds could be assayed with a 384 well plate format:
(§3) Compounds were pre-spotted into 384 well plates with a 22-point serial dilution of compound, using a top concentration of 10 or 50 μM, 1:2 serial dilution steps and, a DMSO-only control. HCT116 MTAP null and WT cells were then seeded as above and after 6 days effects on cell viability were measured with the CellTiter-Glo® Luminescent Cell Viability Assay (Promega). Assay plates were read as above and IC50 values were calculated with GeneData Screener using a 4-parameter logistic model to fit dose response curves. The reported IC50 represents the value where the curve transits 50% of control.

[2] = tested on: HCT116 WT cells; assay: HCT116 WT cell proliferation / viability (CellTiter-Glo, 6 days); format: cell-based; details: Homo sapiens, HCT-116, 144 h, HCT116 WT cells, 6 days, CellTiter-Glo; read-out: HCT-116 WT IC50
Protocol: as §1, §2, §3

Row | SMILES | IC50 [1] [nM] | IC50 [2] [nM]
1 | CC1OCc2c1c(N)nc1cnc(C(=O)N(C)Cc3ccc(Br)cn3)cc21 (racemic) [Example 433, (3R)-4-amino-N-((5-bromo-2-pyridinyl)methyl)-N,3-dimethyl-1,3-dihydrofuro[3,4-c][1,7]naphthyridine-8-carboxamide and (3S)-4-amino-N-((5-bromo-2-pyridinyl)methyl)-N,3-dimethyl-1,3-dihydrofuro[3,4-c][1,7]naphthyridine-8-carboxamide] | 344 | 21200
2 | N#Cc1ccc(CN(C(=O)c2ccc3nc(N)c4c(c3c2)COC4)C2CCCn3ncnc32)nc1 (racemic) [Example 448, 4-amino-N-((5-cyano-2-pyridinyl)methyl)-N-((8R)-5,6,7,8-tetrahydro[1,2,4]triazolo[1,5-a]pyridin-8-yl)-1,3-dihydrofuro[3,4-c]quinoline-8-carboxamide and 4-amino-N-((5-cyano-2-pyridinyl)methyl)-N-((8S)-5,6,7,8-tetrahydro[1,2,4]triazolo[1,5-a]pyridin-8-yl)-1,3-dihydrofuro[3,4-c]quinoline-8-carboxamide] | 124 | 2100
3 | CC(c1ncccn1)N(Cc1ccc(C2COC2)cc1)C(=O)c1ccc2nc(N)c3c(c2c1)COC3 (racemic) [Example 449, 4-amino-N-(4-(3-oxetanyl)benzyl)-N-((1R)-1-(2-pyrimidinyl)ethyl)-1,3-dihydrofuro[3,4-c]quinoline-8-carboxamide and 4-amino-N-(4-(3-oxetanyl)benzyl)-N-((1S)-1-(2-pyrimidinyl)ethyl)-1,3-dihydrofuro[3,4-c]quinoline-8-carboxamide] | 42 | 1230
4 | CC(CF)N(Cc1ccc(C#N)cn1)C(=O)c1ccc2nc(N)c3c(c2c1)COC3 (racemic) [Example 473, 4-amino-N-((5-cyano-2-pyridinyl)methyl)-N-((2R)-1-fluoro-2-propanyl)-1,3-dihydrofuro[3,4-c]quinoline-8-carboxamide and 4-amino-N-((5-cyano-2-pyridinyl)methyl)-N-((2S)-1-fluoro-2-propanyl)-1,3-dihydrofuro[3,4-c]quinoline-8-carboxamide] | 809 | > 10000
5 | COCC(C)N(Cc1ccc(C(F)(F)F)nn1)C(=O)c1cc2c3c(c(N)nc2cc1Cl)COC3 (racemic) [Example 487, 4-amino-7-chloro-N-((2R)-1-methoxy-2-propanyl)-N-((6-(trifluoromethyl)-3-pyridazinyl)methyl)-1,3-dihydrofuro[3,4-c]quinoline-8-carboxamide and 4-amino-7-chloro-N-((2S)-1-methoxy-2-propanyl)-N-((6-(trifluoromethyl)-3-pyridazinyl)methyl)-1,3-dihydrofuro[3,4-c]quinoline-8-carboxamide] | 88 | 1370

Further lines, results first:

Row | IC50 [1] [nM] | IC50 [2] [nM] | SMILES
6 | 29 | 305 | CO[C@@H]1COCC[C@H]1N(Cc1ccc(C(F)(F)F)cn1)C(=O)c1ccc2nc(N)c3c(c2c1)COC3 (racemic) [Example 459, 4-amino-N-((3R,4S)-3-methoxytetrahydro-2H-pyran-4-yl)-N-((5-(trifluoromethyl)-2-pyridinyl)methyl)-1,3-dihydrofuro[3,4-c]quinoline-8-carboxamide and 4-amino-N-((3S,4R)-3-methoxytetrahydro-2H-pyran-4-yl)-N-((5-(trifluoromethyl)-2-pyridinyl)methyl)-1,3-dihydrofuro[3,4-c]quinoline-8-carboxamide]
7 | 19 | 287 | CO[C@@H]1CCOC[C@H]1N(Cc1ccc(C(F)(F)F)cn1)C(=O)c1ccc2nc(N)c3c(c2c1)COC3 (racemic) [Example 460, 4-amino-N-((3R,4R)-4-methoxytetrahydro-2H-pyran-3-yl)-N-((5-(trifluoromethyl)-2-pyridinyl)methyl)-1,3-dihydrofuro[3,4-c]quinoline-8-carboxamide and 4-amino-N-((3S,4S)-4-methoxytetrahydro-2H-pyran-3-yl)-N-((5-(trifluoromethyl)-2-pyridinyl)methyl)-1,3-dihydrofuro[3,4-c]quinoline-8-carboxamide]
